Active and inactive are the calls of the source. The rule behind the calls is not given here.
What was measured:
A549 [1] = assay: Induction of apoptosis in human A549 cells assessed as late apoptotic cells at 4 uM after 24 hrs using annexin-V-PE/7-AAD double staining by flow cytometry; type: functional
A549 [2] = assay: Induction of apoptosis in human A549 cells assessed as viable cells at 4 uM after 24 hrs using annexin-V-PE/7-AAD double staining by flow cytometry; type: functional; details: A549, 24 h, read-out: Activity
A549 [3] = assay: Induction of apoptosis in human A549 cells assessed as apoptotic cells at 4 uM after 24 hrs using annexin-V-PE/7-AAD double staining by flow cytometry; type: functional
A549 [4] = assay: Induction of apoptosis in human A549 cells assessed as pre-necrotic cells at 4 uM after 24 hrs followed by irradiated with light dose 0.18 J/cm2 using annexin-V-PE/7-AAD double staining by flow cytometry; type: functional
A549 [5] = assay: Induction of apoptosis in human A549 cells assessed as late apoptotic cells at 4 uM after 24 hrs followed by irradiated with light dose 0.18 J/cm2 using annexin-V-PE/7-AAD double staining by flow cytometry; type: functional
A549 [6] = assay: Induction of apoptosis in human A549 cells assessed as viable cells at 4 uM after 24 hrs followed by irradiated with light dose 0.18 J/cm2 using annexin-V-PE/7-AAD double staining by flow cytometry; type: functional; details: A549, light or radiation study, read-out: Activity
A549 [7] = assay: Induction of apoptosis in human A549 cells assessed as apoptotic cells at 4 uM after 24 hrs followed by irradiated with light dose 0.18 J/cm2 using annexin-V-PE/7-AAD double staining by flow cytometry; type: functional
A549 [8] = assay: Induction of apoptosis in human A549 cells transfected with lentivirus TNFSF13-siRNA assessed as cell survival at 4 uM after 24 hrs followed by irradiated with light dose 0.18 J/cm2 by MTT assay; type: functional; details: A549, light or radiation study, read-out: Activity
A549 [9] = assay: Induction of apoptosis in human A549 cells transfected with lentivirus GFP assessed as cell survival at 4 uM after 24 hrs followed by irradiated with light dose 0.18 J/cm2 by MTT assay; type: functional; details: A549, light or radiation study, read-out: Activity
A549 [10] = assay: Induction of apoptosis in human A549 cells assessed as live mitochondrial membrane polarized cells at 4 uM after 24 hrs using JC-1 staining by flow cytometry; type: functional
A549 [11] = assay: Induction of apoptosis in human A549 cells assessed as late apoptotic mitochondrial membrane depolarized cells at 4 uM after 24 hrs using JC-1 staining by flow cytometry; type: functional
A549 [12] = assay: Induction of apoptosis in human A549 cells assessed as live mitochondrial membrane depolarized cells at 4 uM after 24 hrs using JC-1 staining by flow cytometry; type: functional
A549 [13] = assay: Induction of apoptosis in human A549 cells assessed as dying mitochondrial membrane depolarized cells at 4 uM after 24 hrs using JC-1 staining by flow cytometry; type: functional
A549 [14] = assay: Induction of apoptosis in human A549 cells assessed as live mitochondrial membrane polarized cells at 4 uM after 24 hrs followed by irradiated with light dose 0.18 J/cm2 using JC-1 staining by flow cytometry; type: functional
A549 [15] = assay: Induction of apoptosis in human A549 cells assessed as late apoptotic mitochondrial membrane depolarized cells at 4 uM after 24 hrs followed by irradiated with light dose 0.18 J/cm2 using JC-1 staining by flow cytometry; type: functional
A549 [16] = assay: Induction of apoptosis in human A549 cells assessed as live mitochondrial membrane depolarized cells at 4 uM after 24 hrs followed by irradiated with light dose 0.18 J/cm2 using JC-1 staining by flow cytometry; type: functional
A549 [17] = assay: Induction of apoptosis in human A549 cells assessed as dying mitochondrial membrane depolarized cells at 4 uM after 24 hrs followed by irradiated with light dose 0.18 J/cm2 using JC-1 staining by flow cytometry; type: functional
A549 [18] = assay: Induction of apoptosis in human A549 cells assessed as upregulation of Bcl2 mRNA expression at 4 uM after 24 hrs followed by irradiated with light dose 0.18 J/cm2 by RT-PCR analysis; type: functional, cell-based
A549 [19] = assay: Induction of apoptosis in human A549 cells assessed as upregulation of Smac mRNA expression at 4 uM after 24 hrs followed by irradiated with light dose 0.18 J/cm2 by RT-PCR analysis; type: functional, cell-based
A549 [20] = assay: Induction of apoptosis in human A549 cells assessed as upregulation of XIAP mRNA expression at 4 uM after 24 hrs followed by irradiated with light dose 0.18 J/cm2 by RT-PCR analysis; type: functional, cell-based
A549 [21] = assay: Induction of apoptosis in human A549 cells assessed as upregulation of TNFSF13 mRNA expression at 4 uM after 24 hrs followed by irradiated with light dose 0.18 J/cm2 by RT-PCR analysis; type: functional, cell-based
A549 [22] = assay: Induction of apoptosis in human A549 cells assessed as down regulation of […] mRNA expression at 4 uM after 24 hrs followed by irradiated with light dose 0.18 J/cm2 by RT-PCR analysis; type: functional, cell-based
A549 [23] = assay: Induction of apoptosis in human A549 cells assessed as down regulation of […] mRNA expression at 2 uM after 24 hrs followed by irradiated with light dose 0.18 J/cm2 by RT-PCR analysis; type: functional, cell-based
A549 [24] = assay: Induction of apoptosis in human A549 cells transfected with lentivirus Smac-siRNA assessed as cell survival at 4 uM after 24 hrs followed by irradiated with light dose 0.18 J/cm2 by MTT assay; type: functional; details: A549, light or radiation study, read-out: Activity
A549 [25] = assay: Induction of apoptosis in human A549 cells transfected with lentivirus p53-siRNA assessed as reduction of p53 mRNA level at 4 uM after 24 hrs followed by irradiated with light dose 0.18 J/cm2 by MTT assay; type: functional; set-up: scale not given: the % may be the effect or the level left
A549 [26] = assay: Induction of apoptosis in human A549 cells transfected with lentivirus Smac-siRNA assessed as reduction of Smac mRNA level at 4 uM after 24 hrs followed by irradiated with light dose 0.18 J/cm2 by MTT assay; type: functional; set-up: scale not given: the % may be the effect or the level left
A549 [27] = assay: Induction of apoptosis in human A549 cells transfected with lentivirus GFP assessed as reduction of GFP mRNA level at 4 uM after 24 hrs followed by irradiated with light dose 0.18 J/cm2 by MTT assay; type: functional; set-up: scale not given: the % may be the effect or the level left
A549 [28] = assay: Antitumor activity against human A549 cells xenografted in nude BALB/C mouse assessed as tumor shrinkage at 8 uM after 24 hrs followed by irradiated with light dose 78 J/cm2 measured after 10 days; type: functional, cell-based
A549 [29] = assay: Antitumor activity against human A549 cells xenografted in nude BALB/C mouse assessed as dark tumor at 8 uM after 24 hrs followed by irradiated with light dose 78 J/cm2 measured after 10 days; type: functional, cell-based
A549 [30] = assay: Antitumor activity against human A549 cells xenografted in nude BALB/C mouse assessed as hardened tumor at 8 uM after 24 hrs followed by irradiated with light dose 78 J/cm2 measured after 10 days; type: functional, cell-based
A549 [31] = assay: Antitumor activity against human A549 cells xenografted in nude BALB/C mouse assessed as dry tumor at 8 uM after 24 hrs followed by irradiated with light dose 78 J/cm2 measured after 10 days; type: functional, cell-based

`C=Cc1c(C)c2cc3nc(c4c5[nH]c(cc6nc(cc1[nH]2)C(C)=C6CC)c(C)c5C(=O)N(C1CCCCC1)C4=O)[C@@H](CCC(=O)O)[C@@H]3C` gave an Activity (A549 [1]) of 3.6%, a viability at 4 µM (A549 [2]) of 91% and an Activity (A549 [3]) of 2.96%. The Activity (A549 [4]) was 7.63%, the Activity (A549 [5]) was 27.71% and the viability at 4 µM (A549 [6]) was 9.32%. It also gave an Activity (A549 [7]) of 55.33%, a viability at 4 µM (A549 [8]) of 72.1% and a viability at 4 µM (A549 [9]) of 44.9%. For the same molecule, the Activity (A549 [10]) was 0%, the Activity (A549 [11]) was 88.88% and the Activity (A549 [12]) was 0.01%. For the same molecule, the Activity (A549 [13]) was 9.35%, the Activity (A549 [14]) was 0.01% and the Activity (A549 [15]) was 91.08%. For the same molecule, the Activity (A549 [16]) was 0.01%, the Activity (A549 [17]) was 8.28% and the Activity (A549 [18]) was “Active”. For the same molecule, the Activity (A549 [19]) was “Active”, the Activity (A549 [20]) was “Active” and the Activity (A549 [21]) was “Active”. The Activity (A549 [22]) was “Active”, the Activity (A549 [23]) was “Active” and the viability at 4 µM (A549 [24]) was 24.5%. The Activity (A549 [25]) was 60%, the Activity (A549 [26]) was 60% and the Activity (A549 [27]) was 18.8%. For the same molecule, the Activity (A549 [28]) was “Active”, the Activity (A549 [29]) was “Active” and the Activity (A549 [30]) was “Active”. For the same molecule, the Activity (A549 [31]) was “Active”.
